In paper PMC6694038, “Pharmacogenomic–pharmacokinetic study of selective estrogen-receptor modulators with intra-patient dose escalation in breast cancer” (Breast Cancer (Tokyo, Japan), 2019):
“Also recorded” adds a separate entry of the source. Like-named read-outs stand apart in the source and are kept apart here.

Columns and labels:
[1] = Total activity: sum of plasma concentrations of each active metabolite adjusted by in vitro activity; type: in vivo, breast cancer patients
Protocol: Blood samples for PK analysis were obtained from patients who had good compliance with taking medications 2–4 h after taking anti-estrogens. […] The interday variability and intraday variability for all compounds are within 15%.

[2] = Hot flush grade (CTCAE v3.0) in the screening study; type: in vivo, breast cancer patients; settings: screening study
Source text: (§1) We obtained data on compliance and the grade of hot flush as defined by the Common Terminology Criteria for Adverse Events v3.0.

[3] = Source text: Written informed consent was obtained from all the participants included in the study. The patient enrolment period for the screening study started on February 1, 2009 and ended on July 31, 2012.
as §1
The p value was not calculated if there were no events.

CN(C)CCOc1ccc(/C(=C(/CCCl)c2ccccc2)c2ccccc2)cc1 [TOR, toremifene]
Total activity on continuing the same dose ([1]; TOR 120 mg for up to 6 months, trend for decrease after 24 weeks): remained constant
Change of total activity after increasing the dose ([1]; TOR from 40 to 120 mg, p < 0.01): increased significantly; also recorded: increased by at least twofold
Hot flush grade 0, % of patients ([2]; TOR 40 mg): 57.4%
Hot flush grade 0, patients ([2]; TOR 40 mg): 35
Hot flush grade 1, % of patients ([2]; TOR 40 mg): 32.8%
Hot flush grade 1, patients ([2]; TOR 40 mg): 20
Hot flush grade 2, % of patients ([2]; TOR 40 mg): 9.8%
Hot flush grade 2, patients ([2]; TOR 40 mg): 6
Hot flush grade 3, % of patients ([2]; TOR 40 mg): 0.0%
Hot flush grade 3, patients ([2]; TOR 40 mg): 0
Hot flush grade 0, % of patients ([2]; TOR 120 mg): 88.9%
Hot flush grade 0, patients ([2]; TOR 120 mg): 24
Hot flush grade 1, % of patients ([2]; TOR 120 mg): 11.1%
Hot flush grade 1, patients ([2]; TOR 120 mg): 3
Hot flush grade 2, % of patients ([2]; TOR 120 mg): 0.0%
Hot flush grade 2, patients ([2]; TOR 120 mg): 0
Hot flush grade 3, % of patients ([2]; TOR 120 mg): 0.0%
Hot flush grade 3, patients ([2]; TOR 120 mg): 0
Grade and frequency of hot flushes compared with TAM 20 mg or TOR 40 mg ([2]; patients taking TOR 120 mg): lower grade and frequency of hot flushes
Cre elevation All grade, % of patients ([3]; TOR 40 mg): 36.4%
Cre elevation All grade, patients ([3]; TOR 40 mg): 4
Cre elevation ≧ G2, % of patients ([3]; TOR 40 mg): 0 (0) %
Cre elevation ≧ G2, patients ([3]; TOR 40 mg): 0 (0)
GOT elevation All grade, % of patients ([3]; TOR 40 mg): 0 (0) %
GOT elevation All grade, patients ([3]; TOR 40 mg): 0 (0)
GOT elevation ≧ G2, % of patients ([3]; TOR 40 mg): 0 (0) %
GOT elevation ≧ G2, patients ([3]; TOR 40 mg): 0 (0)
GPT elevation All grade, % of patients ([3]; TOR 40 mg): 0 (0) %
GPT elevation All grade, patients ([3]; TOR 40 mg): 0 (0)
GPT elevation ≧ G2, % of patients ([3]; TOR 40 mg): 0 (0) %
GPT elevation ≧ G2, patients ([3]; TOR 40 mg): 0 (0)
Hot flush G0, % of patients ([3]; TOR 40 mg): 100%
Hot flush G0, patients ([3]; TOR 40 mg): 14
Hot flush G1, % of patients ([3]; TOR 40 mg): 0 (0) %
Hot flush G1, patients ([3]; TOR 40 mg): 0 (0)
Hot flush G2, % of patients ([3]; TOR 40 mg): 0 (0) %
Hot flush G2, patients ([3]; TOR 40 mg): 0 (0)
Hyperglycemia All grade, % of patients ([3]; TOR 40 mg): 0 (0) %
Hyperglycemia All grade, patients ([3]; TOR 40 mg): 0 (0)
Hyperglycemia ≧ G2, % of patients ([3]; TOR 40 mg): 0 (0) %
Hyperglycemia ≧ G2, patients ([3]; TOR 40 mg): 0 (0)
LDH elevation All grade, % of patients ([3]; TOR 40 mg): 0 (0) %
LDH elevation All grade, patients ([3]; TOR 40 mg): 0 (0)
LDH elevation ≧ G2, % of patients ([3]; TOR 40 mg): 0 (0) %
LDH elevation ≧ G2, patients ([3]; TOR 40 mg): 0 (0)
LDL elevation All grade, % of patients ([3]; TOR 40 mg): 0 (0) %
LDL elevation All grade, patients ([3]; TOR 40 mg): 0 (0)
LDL elevation ≧ G2, % of patients ([3]; TOR 40 mg): 0 (0) %
LDL elevation ≧ G2, patients ([3]; TOR 40 mg): 0 (0)
Low PLT All grade, % of patients ([3]; TOR 40 mg): 0 (0) %
Low PLT All grade, patients ([3]; TOR 40 mg): 0 (0)
Low PLT ≧ G2, % of patients ([3]; TOR 40 mg): 0 (0) %
Low PLT ≧ G2, patients ([3]; TOR 40 mg): 0 (0)
Low WBC All grade, % of patients ([3]; TOR 40 mg): 11.1%
Low WBC All grade, patients ([3]; TOR 40 mg): 1
Low WBC ≧ G2, % of patients ([3]; TOR 40 mg): 11.1%
Low WBC ≧ G2, patients ([3]; TOR 40 mg): 1
T. Bil elevation All grade, % of patients ([3]; TOR 40 mg): 0 (0) %
T. Bil elevation All grade, patients ([3]; TOR 40 mg): 0 (0)
T. Bil elevation ≧ G2, % of patients ([3]; TOR 40 mg): 0 (0) %
T. Bil elevation ≧ G2, patients ([3]; TOR 40 mg): 0 (0)
TG elevation All grade, % of patients ([3]; TOR 40 mg): 12.5%
TG elevation All grade, patients ([3]; TOR 40 mg): 1
TG elevation ≧ G2, % of patients ([3]; TOR 40 mg): 0 (0) %
TG elevation ≧ G2, patients ([3]; TOR 40 mg): 0 (0)
Weight, max ([3]; TOR 40 mg): 73.4 kg
Weight, mean ([3]; TOR 40 mg): 53.2 kg
Weight, median ([3]; TOR 40 mg): 51.7 kg
Weight, min ([3]; TOR 40 mg): 45.0 kg
Cre elevation All grade, % of patients ([3]; TOR 120 mg (1)): 27.3%
Cre elevation All grade, patients ([3]; TOR 120 mg (1)): 3
Cre elevation ≧ G2, % of patients ([3]; TOR 120 mg (1)): 0 (0) %
Cre elevation ≧ G2, patients ([3]; TOR 120 mg (1)): 0 (0)
GOT elevation All grade, % of patients ([3]; TOR 120 mg (1)): 16.7%
GOT elevation All grade, patients ([3]; TOR 120 mg (1)): 2
GOT elevation ≧ G2, % of patients ([3]; TOR 120 mg (1)): 8.3%
GOT elevation ≧ G2, patients ([3]; TOR 120 mg (1)): 1
GPT elevation All grade, % of patients ([3]; TOR 120 mg (1)): 8.3%
GPT elevation All grade, patients ([3]; TOR 120 mg (1)): 1
GPT elevation ≧ G2, % of patients ([3]; TOR 120 mg (1)): 8.3%
GPT elevation ≧ G2, patients ([3]; TOR 120 mg (1)): 1
Hot flush G0, % of patients ([3]; TOR 120 mg (1)): 69.2%
Hot flush G0, patients ([3]; TOR 120 mg (1)): 9
Hot flush G1, % of patients ([3]; TOR 120 mg (1)): 15.4%
Hot flush G1, patients ([3]; TOR 120 mg (1)): 2
Hot flush G2, % of patients ([3]; TOR 120 mg (1)): 15.4%
Hot flush G2, patients ([3]; TOR 120 mg (1)): 2
